Data published in patent US20110082114A1, “Methods of Treating Aneurysmal Dilatation, Blood Vessel Wall Weakness and Specifically Abdominal Aortic and Thoracic Aneurysm Using Matrix Metalloprotease-2 Inhibitors” (SYMPHONY EVOLUTION, INC., priority 2009, published 2011).

Each molecule was assayed on C57/B16 mice, elastase-perfused abdominal aorta (assay: Elastase-perfusion mouse model of AAA, aortic histology). Details: 50, 125, 250 mg/kg/day.
Format: in vivo
Method: The aortas from several mice from each experimental group were perfusion fixed with 10% neutral-buffered formalin, removed, and placed in additional formalin for a minimum of 24 hours prior to processing for paraffin embedding. Following paraffin embedding, aortic specimens were cut into 5 μm sections and mounted on glass slides. Each specimen was stained with hematoxylin and eosin to evaluate inflammatory cell infiltration and Accustain® Elastic Stain kit to assess the degree of elastin degradation. Photomicrographs of serial sections were obtained using an Olympus BX60 light microscope equipped with CV12 video capture camera.
Representative aortas from each group were fixed in formalin following aortic harvest and processed into paraffin blocks. During harvest only the maximally dilated segment of the aorta was taken, and serial sections of the block were made to assure that the most dilated segment of aorta was imaged. These maximally dilated segments were stained with Hematoxylin and Eosin stains as well as an elastin highlighting stain (Verhoff-Von Giesen [VVG]).
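Throughout, for IC50: fluorescence from cleavage of a quenched 10-residue DABCYL/EDANS peptide by 5 nM enzyme in HEPES pH 8.0 buffer, 16 hr at room temperature, compounds serially diluted 100 µM to 0.5 nM.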

Row | SMILES | degree of elastin damage and inflammatory cell inflammation versus dose
1 | COCCOC(=O)N1CCN(S(=O)(=O)c2cc(F)c(Oc3ccc(Cl)cc3)c(F)c2)[C@@H](C(=O)NO)C1 [Entry 15] | inversely correlated with the dose of the agent administered

Each molecule was assayed against T1, mADAM-10 or hADAM-10 (UniProt O14672) (assay: ADAM-10 enzyme assay (fluorogenic peptide cleavage)). Details: not given.
T1 sequence (O14672 1-748): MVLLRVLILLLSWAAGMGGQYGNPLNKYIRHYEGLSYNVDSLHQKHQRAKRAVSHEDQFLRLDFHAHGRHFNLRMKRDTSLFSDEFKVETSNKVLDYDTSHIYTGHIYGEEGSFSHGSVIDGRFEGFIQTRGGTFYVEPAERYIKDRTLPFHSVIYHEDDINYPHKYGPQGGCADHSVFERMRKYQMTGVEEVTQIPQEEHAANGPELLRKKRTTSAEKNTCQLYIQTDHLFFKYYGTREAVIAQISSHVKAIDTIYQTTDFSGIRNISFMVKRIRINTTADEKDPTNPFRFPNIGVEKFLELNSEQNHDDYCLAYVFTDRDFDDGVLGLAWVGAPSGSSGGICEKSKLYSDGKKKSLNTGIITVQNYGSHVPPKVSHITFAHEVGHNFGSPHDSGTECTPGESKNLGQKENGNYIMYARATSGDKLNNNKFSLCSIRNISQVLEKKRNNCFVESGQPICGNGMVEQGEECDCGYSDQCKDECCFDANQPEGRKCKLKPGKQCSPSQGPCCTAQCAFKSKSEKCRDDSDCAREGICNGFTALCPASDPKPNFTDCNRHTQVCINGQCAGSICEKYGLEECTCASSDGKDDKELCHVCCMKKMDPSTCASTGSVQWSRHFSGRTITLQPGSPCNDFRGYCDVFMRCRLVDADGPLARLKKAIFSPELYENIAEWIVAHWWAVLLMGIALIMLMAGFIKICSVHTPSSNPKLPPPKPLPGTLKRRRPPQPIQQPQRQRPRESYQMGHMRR
Format: biochemical

Row | SMILES | IC50 [nM]
2 | O=C(NO)[C@H]1CN(C(=O)C(=O)N2CCCCC2)CCN1S(=O)(=O)c1cc(F)c(Oc2ccc(Cl)cc2)c(F)c1 [Entry 35] | < 50
3 | CN(C)S(=O)(=O)N1CCN(S(=O)(=O)c2cc(F)c(Oc3ccc(Cl)cc3)c(F)c2)[C@@H](C(=O)NO)C1 [Entry 36] | < 50
4 | O=C(NO)[C@H]1CN(S(=O)(=O)NC(=O)N2CCCCC2)CCN1S(=O)(=O)c1cc(F)c(Oc2ccc(Cl)cc2)c(F)c1 [Entry 37] | < 50
5 | O=C(NO)[C@H]1CN(S(=O)(=O)NC(=O)N2CCOCC2)CCN1S(=O)(=O)c1cc(F)c(Oc2ccc(Cl)cc2)c(F)c1 [Entry 38] | < 50
6 | CN1CCN(C(=O)NS(=O)(=O)N2CCN(S(=O)(=O)c3cc(F)c(Oc4ccc(Cl)cc4)c(F)c3)[C@@H](C(=O)NO)C2)CC1 [Entry 39] | < 50
7 | COCCOC(=O)N1CCN(S(=O)(=O)c2cc(F)c(Oc3ccccc3)c(F)c2)[C@@H](C(=O)NO)C1 [Entry 40] | < 50
8 | O=C(NO)[C@H]1CN(S(=O)(=O)c2cc(F)c(O)c(F)c2)CCN1S(=O)(=O)c1cc(F)c(Oc2ccc(Cl)cc2)c(F)c1 [Entry 41] | < 50
9 | O=C(NO)[C@H]1CN(C(=O)c2ccncc2)CCN1S(=O)(=O)c1cc(F)c(Oc2ccc(Cl)cc2)c(F)c1 [Entry 42] | < 50
10 | CCCCCCC(=O)N1CCN(S(=O)(=O)c2cc(F)c(Oc3ccc(Cl)cc3)c(F)c2)[C@@H](C(=O)NO)C1 [Entry 43] | < 50
11 | CCCC(CCC)C(=O)N1CCN(S(=O)(=O)c2cc(F)c(Oc3ccc(Cl)cc3)c(F)c2)[C@@H](C(=O)NO)C1 [Entry 44] | < 50
12 | O=C(NO)[C@H]1CN(S(=O)(=O)c2cccnc2O)CCN1S(=O)(=O)c1cc(F)c(Oc2ccc(Cl)cc2)c(F)c1 [Entry 45] | < 50
13 | O=C(CN1CCOCC1)NC(=O)N1CCN(S(=O)(=O)c2cc(F)c(Oc3ccc(Cl)cc3)c(F)c2)[C@@H](C(=O)NO)C1 [Entry 46] | < 50
14 | O=C(NO)[C@H]1CN(C(=O)Cc2cccnc2)CCN1S(=O)(=O)c1cc(F)c(Oc2ccc(Cl)cc2)c(F)c1 [Entry 47] | < 50

Results, then the molecule that gave them:

Row | IC50 [nM] | SMILES
15 | < 50 | COCCN1CCN(S(=O)(=O)c2cc(F)c(Oc3ccc(Cl)cc3)c(F)c2)[C@@H](C(=O)NO)C1 [Entry 29]
16 | < 50 | O=C(NO)[C@H]1CN(C(=O)N2CCOCC2)CCN1S(=O)(=O)c1cc(F)c(Oc2ccc(Cl)cc2)c(F)c1 [Entry 30]
17 | < 50 | O=C(NO)[C@H]1CN(C(=O)C(=O)N2CCOCC2)CCN1S(=O)(=O)c1cc(F)c(Oc2ccc(Cl)cc2)c(F)c1 [Entry 31]
18 | < 50 | O=C(NO)[C@H]1CN(C(=O)OCc2ccccc2)CCN1S(=O)(=O)c1cc(F)c(Oc2ccc(Cl)cc2)c(F)c1 [Entry 32]
19 | < 50 | O=C(CCl)NC(=O)N1CCN(S(=O)(=O)c2cc(F)c(Oc3ccc(Cl)cc3)c(F)c2)[C@@H](C(=O)NO)C1 [Entry 33]
20 | < 50 | O=C(NO)[C@H]1CN(S(=O)(=O)Cc2ccncc2)CCN1S(=O)(=O)c1cc(F)c(Oc2ccc(Cl)cc2)c(F)c1 [Entry 34]

Each molecule was assayed on C57/B16 mice, elastase-perfused abdominal aorta (assay: Elastase-perfusion mouse model of AAA, aortic diameter). Details: 125 mg/kg/day, daily gavage in Cremophor, Mean±SE.
Format: in vivo
Text: All mice used in the experiment were commercially obtained C57/B16 inbred strain mice. Throughout the experimental course, mice were allowed free access to food and water. Animals were housed in a controlled animal facility, and all mouse care and treatment occurred under approved protocols.
A total of 89 C57/B16 mice were subjected to transient perfusion of the abdominal aorta according to a protocol known in the art. Briefly, after sedation and preparation, the aorta was approached through a midline laparotomy. The infrarenal aorta was dissected and the diameter was measured under physiologic blood pressure. A segment of infrarenal aorta was isolated and a 5 minute perfusion of this segment was performed through an arteriotomy at 100 mmHg with a solution containing type I porcine pancreatic elastase (PPE 0.16 U/mL). All of the experiments were performed with a single PPE preparation derived from the same commercial source and lot.
Following aortic perfusion the arteriotomy was repaired, the laparotomy was closed and the animal was allowed to completely recover before returning to its standard housing.
Following aortic perfusion, animals were placed into one of 5 treatment groups. […] Three different doses of the agent were used, 50 mg/kg/day (n=17), 125 mg/kg/day (n=17), and 250 mg/kg/day (n=18). There were two mice in each group which died following aortic perfusion, and all others were available for analysis. Control animals (n=18) were similarly treated with daily gavage of the Cremophor diluent only. Of these mice, 16 survived the two weeks following aortic perfusion and underwent final aortic measurements and harvest. […] In this group, 4 mice died prior to the two week harvest, and all others were used in the analysis of aneurysm growth.
Two weeks following elastase perfusion, the mice were again anesthetized; the laparotomy incision was reopened and the final aortic diameter was measured in vivo prior to sacrifice. The animals were humanely sacrificed, and circulating blood and the entire perfused segment of aorta was harvested for RNA extraction, protein extraction or histology.

Row | SMILES | mean % ΔAD (increase in aortic diameter at 2 weeks) [%]
21 | COCCOC(=O)N1CCN(S(=O)(=O)c2cc(F)c(Oc3ccc(Cl)cc3)c(F)c2)[C@@H](C(=O)NO)C1 [Entry 15] | 129.3±5.1

Same assay, conditions: 250 mg/kg/day, daily gavage

Row | SMILES | animals which did not develop aneurysms [%]
22 | COCCOC(=O)N1CCN(S(=O)(=O)c2cc(F)c(Oc3ccc(Cl)cc3)c(F)c2)[C@@H](C(=O)NO)C1 [Entry 15] | 12

Same assay, conditions: 250 mg/kg/day, daily gavage in Cremophor, Mean±SE

Row | SMILES | mean % ΔAD (increase in aortic diameter at 2 weeks) [%]
23 | COCCOC(=O)N1CCN(S(=O)(=O)c2cc(F)c(Oc3ccc(Cl)cc3)c(F)c2)[C@@H](C(=O)NO)C1 [Entry 15] | 119.2±14.1

Same assay, conditions: all doses (50, 125, 250 mg/kg/day)

Row | SMILES | aortic diameters at harvest compared with control animals
24 | COCCOC(=O)N1CCN(S(=O)(=O)c2cc(F)c(Oc3ccc(Cl)cc3)c(F)c2)[C@@H](C(=O)NO)C1 [Entry 15] | significantly smaller than control animals

Same assay, conditions: low (50 mg/kg/day) and intermediate (125 mg/kg/day) dose groups

Row | SMILES | animals that developed maximal diameters greater than 100%
25 | COCCOC(=O)N1CCN(S(=O)(=O)c2cc(F)c(Oc3ccc(Cl)cc3)c(F)c2)[C@@H](C(=O)NO)C1 [Entry 15] | All animals

Same assay, conditions: lowest dose (50 mg/kg/day), daily gavage in Cremophor, Mean±SE

Row | SMILES | mean % ΔAD (increase in aortic diameter at 2 weeks) [%]
26 | COCCOC(=O)N1CCN(S(=O)(=O)c2cc(F)c(Oc3ccc(Cl)cc3)c(F)c2)[C@@H](C(=O)NO)C1 [Entry 15] | 140.4±3.2
